Experiments:
Format in all cases: cell-based
[1] = test system: Klebsiella pneomoniae; assay: Successive dilution in TSB, growth inhibition; set-up: key: The presence of a “+” in the box indicates that the particular bacteria was found; the presence of a “−” indicates that the particular bacteria was not found
Procedure: (§1) The following is a summary of an experiment using the benzaldehyde composition as disclosed herein to destroy bacteria, for example to test it as a preservative of food. The benzaldehyde was tested for its ability to inhibit the growth of microbes at ten different concentrations of the benzaldehyde, each concentration was half of the previous concentrations as a result of a dilution using TSB as the medium. The following concentrations were tested by successive dilutions of 100% benzaldehyde: 50%, 25%, 12.5%, 6.25%, 3.125%, 1.5625%, 0.78125%, 0.390625%, 0.195313%, 0.097656%. Each concentration appears in the chart below for each of five different strains of bacteria. The experiment was conducted twice and therefore generated two charts (see below). […] Thus, the minimum concentration needed to substantially eliminate the bacterial strain can be deduced from the experiment.
(§2) The initial concentration of the microbes was approximately […]. The microbes studied are listed below. Enterococcus feaclis • 2. Staphylococcus aureus • 3. Pseudomonas aeruginosa • 4. E. coli • 5. Klebsiella pneomoniae

[2] = test system: E. coli; assay: Successive dilution in TSB, growth inhibition; set-up: key: The presence of a “+” in the box indicates that the particular bacteria was found; the presence of a “−” indicates that the particular bacteria was not found
Procedure: as §1, §2

[3] = test system: Enterococcus feaclis; assay: Successive dilution in TSB, growth inhibition; set-up: key: The presence of a “+” in the box indicates that the particular bacteria was found; the presence of a “−” indicates that the particular bacteria was not found
Procedure: as §1, §2

[4] = test system: Staphylococcus aureus; assay: Successive dilution in TSB, growth inhibition; set-up: key: The presence of a “+” in the box indicates that the particular bacteria was found; the presence of a “−” indicates that the particular bacteria was not found
Procedure: as §1, §2

[5] = test system: Pseudomonas aeruginosa; assay: Successive dilution in TSB, growth inhibition; set-up: key: The presence of a “+” in the box indicates that the particular bacteria was found; the presence of a “−” indicates that the particular bacteria was not found
Procedure: as §1, §2

[6] = test system: five different strains of bacteria; assay: Successive dilution in TSB, statements on all five strains
Procedure: as §1, §2
A further experiment was conducted in which instead of starting from a 100% concentration, we started from a 10% concentration of benzaldehyde and performed successive dilutions. […] This experimental was not repeated after receiving the results.

[7] = test system: E. coli; assay: Successive dilution in TSB, growth inhibition; set-up: key: The presence of a “+” in the box indicates that the particular bacteria was found; the presence of a “−” indicates that the particular bacteria was not found; conditions: benzaldehyde concentration given as 2, in TSB; Table 1
[8] = benzaldehyde 0.097656% in TSB, Table 1
[9] = benzaldehyde 0.097656% in TSB, Table 2
[10] = benzaldehyde 0.195313% in TSB, Table 1
[11] = benzaldehyde 0.195313% in TSB, Table 2
[12] = benzaldehyde 0.390625% in TSB, Table 1
[13] = benzaldehyde 0.390625% in TSB, Table 2
[14] = benzaldehyde 0.78125% in TSB, Table 1
[15] = benzaldehyde 0.78125% in TSB, Table 2
[16] = benzaldehyde 1.5625% in TSB, Table 1
[17] = benzaldehyde 1.5625% in TSB, Table 2
[18] = benzaldehyde 3.125% in TSB, Table 1
[19] = benzaldehyde 3.125% in TSB, Table 2
[20] = benzaldehyde 6.25% in TSB, Table 1
[21] = benzaldehyde 6.25% in TSB, Table 2
[22] = benzaldehyde 12.5% in TSB, Table 1
[23] = benzaldehyde 12.5% in TSB, Table 2
[24] = benzaldehyde 25% in TSB, Table 2
[25] = benzaldehyde 50% in TSB, Table 1
[26] = benzaldehyde 50% in TSB, Table 2
[27] = benzaldehyde concentration given as 2, in TSB, Table 1
[28] = conclusion from the dilution experiments

## O=Cc1ccccc1 [Benzaldehyde]
[1]; [8]
  bacteria found (+) / not found (−): +
[1]; [9]
  bacteria found (+) / not found (−): +
[1]; [10]
  bacteria found (+) / not found (−): +
[1]; [11]
  bacteria found (+) / not found (−): +
[1]; [12]
  bacteria found (+) / not found (−): +
[1]; [13]
  bacteria found (+) / not found (−): −
[1]; [14]
  bacteria found (+) / not found (−): +
[1]; [15]
  bacteria found (+) / not found (−): −
[1]; [16]
  bacteria found (+) / not found (−): −
[1]; [17]
  bacteria found (+) / not found (−): −
[1]; [18]
  bacteria found (+) / not found (−): −
[1]; [19]
  bacteria found (+) / not found (−): −
[1]; [20]
  bacteria found (+) / not found (−): −
[1]; [21]
  bacteria found (+) / not found (−): −
[1]; [22]
  bacteria found (+) / not found (−): −
[1]; [23]
  bacteria found (+) / not found (−): −
[1]; [24]
  bacteria found (+) / not found (−): −
[1]; [25]
  bacteria found (+) / not found (−): −
[1]; [26]
  bacteria found (+) / not found (−): −
[1]; [27]
  bacteria found (+) / not found (−): −
[2]; [8]
  bacteria found (+) / not found (−): +
[2]; [9]
  bacteria found (+) / not found (−): +
[2]; [10]
  bacteria found (+) / not found (−): +
[2]; [11]
  bacteria found (+) / not found (−): +
[2]; [12]
  bacteria found (+) / not found (−): +
[2]; [13]
  bacteria found (+) / not found (−): +
[2]; [14]
  bacteria found (+) / not found (−): +
[2]; [15]
  bacteria found (+) / not found (−): +
[2]; [16]
  bacteria found (+) / not found (−): −
[2]; [17]
  bacteria found (+) / not found (−): −
[2]; [18]
  bacteria found (+) / not found (−): −
[2]; [19]
  bacteria found (+) / not found (−): −
[2]; [20]
  bacteria found (+) / not found (−): −
[2]; [21]
  bacteria found (+) / not found (−): −
[2]; [22]
  bacteria found (+) / not found (−): −
[2]; [23]
  bacteria found (+) / not found (−): −
[2]; [24]
  bacteria found (+) / not found (−): −
[2]; [25]
  bacteria found (+) / not found (−): −
[2]; [26]
  bacteria found (+) / not found (−): −
[3]; [8]
  bacteria found (+) / not found (−): +
[3]; [9]
  bacteria found (+) / not found (−): +
[3]; [10]
  bacteria found (+) / not found (−): +
[3]; [11]
  bacteria found (+) / not found (−): +
[3]; [12]
  bacteria found (+) / not found (−): +
[3]; [13]
  bacteria found (+) / not found (−): +
[3]; [14]
  bacteria found (+) / not found (−): +
[3]; [15]
  bacteria found (+) / not found (−): +
[3]; [16]
  bacteria found (+) / not found (−): +
[3]; [17]
  bacteria found (+) / not found (−): +
[3]; [18]
  bacteria found (+) / not found (−): +
[3]; [19]
  bacteria found (+) / not found (−): +
[3]; [20]
  bacteria found (+) / not found (−): +
[3]; [21]
  bacteria found (+) / not found (−): +
[3]; [22]
  bacteria found (+) / not found (−): −
[3]; [23]
  bacteria found (+) / not found (−): −
[3]; [24]
  bacteria found (+) / not found (−): −
[3]; [25]
  bacteria found (+) / not found (−): −
[3]; [26]
  bacteria found (+) / not found (−): −
[3]; [27]
  bacteria found (+) / not found (−): −
[4]; [8]
  bacteria found (+) / not found (−): +
[4]; [9]
  bacteria found (+) / not found (−): +
[4]; [10]
  bacteria found (+) / not found (−): +
[4]; [11]
  bacteria found (+) / not found (−): +
[4]; [12]
  bacteria found (+) / not found (−): +
[4]; [13]
  bacteria found (+) / not found (−): +
[4]; [14]
  bacteria found (+) / not found (−): +
[4]; [15]
  bacteria found (+) / not found (−): +
[4]; [16]
  bacteria found (+) / not found (−): +
[4]; [17]
  bacteria found (+) / not found (−): −
[4]; [18]
  bacteria found (+) / not found (−): −
[4]; [19]
  bacteria found (+) / not found (−): −
[4]; [20]
  bacteria found (+) / not found (−): −
[4]; [21]
  bacteria found (+) / not found (−): −
[4]; [22]
  bacteria found (+) / not found (−): −
[4]; [23]
  bacteria found (+) / not found (−): −
[4]; [24]
  bacteria found (+) / not found (−): −
[4]; [25]
  bacteria found (+) / not found (−): −
[4]; [26]
  bacteria found (+) / not found (−): −
[4]; [27]
  bacteria found (+) / not found (−): −
[5]; [8]
  bacteria found (+) / not found (−): +
[5]; [9]
  bacteria found (+) / not found (−): +
[5]; [10]
  bacteria found (+) / not found (−): +
[5]; [11]
  bacteria found (+) / not found (−): +
[5]; [12]
  bacteria found (+) / not found (−): +
[5]; [13]
  bacteria found (+) / not found (−): +
[5]; [14]
  bacteria found (+) / not found (−): +
[5]; [15]
  bacteria found (+) / not found (−): +
[5]; [16]
  bacteria found (+) / not found (−): −
[5]; [17]
  bacteria found (+) / not found (−): −
[5]; [18]
  bacteria found (+) / not found (−): −
[5]; [19]
  bacteria found (+) / not found (−): −
[5]; [20]
  bacteria found (+) / not found (−): −
[5]; [21]
  bacteria found (+) / not found (−): −
[5]; [22]
  bacteria found (+) / not found (−): −
[5]; [23]
  bacteria found (+) / not found (−): −
[5]; [24]
  bacteria found (+) / not found (−): −
[5]; [25]
  bacteria found (+) / not found (−): −
[5]; [26]
  bacteria found (+) / not found (−): −
[5]; in TSB, Table 1
  bacteria found (+) / not found (−): −
[6]; [28]
  benzaldehyde concentration giving a broad spectrum effect: ≥ 12.5%
  benzaldehyde concentration giving an antibacterial effect against at least some bacteria: ≥ 1.5625%
[6]; further experiment started from 10% benzaldehyde, first dilution to 5%, all strains
  detection of bacteria: positive detection of bacteria for all strains
[7]
  bacteria found (+) / not found (−): −

Reference: patent publication US20250161234A1, “METHODS OF USE OF BENZALDEHYDE COMPOSITIONS” (priority 2022, published 2025)
